The results in this text go back to ChEMBL document CHEMBL1201862, “PubChem BioAssay data set” (2004).

What all share (experiment): NCI anticancer screen, dose series, 48 h
Test [1] deals with CCRF-CEM.
Test [2] concerns OVCAR-4.
In test [3] the test system is A498.
Test [4] deals with SF-539.
The subject of test [5] is EKVX.
In test [6] the test system is Malme-3M.
Test [7] has as its system UACC-62.
For test [8], the system named is NCI-H23.
The test system of test [9] is UO-31.
Test [10] has as its system NCI-H460.
Test [11] deals with M14.
The subject of test [12] is HOP-62.
The test system of test [13] is OVCAR-8.
The test system of test [14] is NCI-H226.
The test system of test [15] is 786-0.
Test [16] has as its system ACHN.
Test [17] has as its system SR.

Each structure is given as a SMILES string.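 Test compounds were applied to cells in 96-well plates for 48 hours at 5 doses. GI50 marks 50% less growth.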 Calls of active or inactive are those of the source. Rule as the data show it: active = GI50 up to about 1.1 µM and inactive = higher.

Turning to `C=CCNC(=O)NCCCCC(NC(C)=O)C(=O)NCc1ccccc1` (centres undefined), the GI50 in test [1], in [2], in [3], in test [4], in test [5] and in test [6] was > 100 µM (inactive) each time. The GI50 in test [7], in [8], in [9], in test [10], in test [11] and in [12] was > 100 µM (inactive) in each case. The GI50 in [13], in [14], in test [15] and in test [16] was > 100 µM (inactive) each time.
With `COc1ccc2c(c1)Oc1cc(O)ccc1[C@@H]2c1ccccc1C(=O)NC(C)c1ccccc1` (some centres undefined), the GI50 was 15.8 µM (inactive) in test [1]; 17.7 µM (inactive) in test [3]; 16.3 µM (inactive) in [4]; 13.3 µM (inactive) in test [5]; 15 µM (inactive) in [6]; 13.6 µM (inactive) in test [7]. The GI50 in [8] was 16.1 µM (inactive); in [9], 13.5 µM (inactive); in test [10], 12.2 µM (inactive); in test [11], 12.2 µM (inactive); in test [12] it was 15.3 µM (inactive); in test [13] it was 17.6 µM (inactive). In addition, the values for the GI50 in test [14], in test [15] and in test [16] were 18.3 µM (inactive), 13.7 µM (inactive) and 15.6 µM (inactive), respectively.
`Cc1ccc(C(=O)NCCN(C)C)c2nc3ccccc3cc12`: the GI50 in [1] was 1.54 µM (inactive); in [2] it was 3.74 µM (inactive); in test [5], 1.73 µM (inactive); in test [6], 2.54 µM (inactive); in test [7], 2.47 µM (inactive); in [9], 2.49 µM (inactive). Further, the GI50 in test [10] was 0.34 µM (active); in test [11], 2.69 µM (inactive); in test [12] it was 8.24 µM (inactive); in test [13], 0.622 µM (active); in test [14], 1.15 µM (inactive); in test [15], 2.32 µM (inactive). Besides, in test [16], the GI50 was 0.45 µM (active).
For the compound `N#C/C(=C1\SCC(=O)N1c1ccccc1)c1nc2ccccc2[nH]1`, the GI50 in test [1], in test [2], in [3], in [4], in [5] and in [6] was > 100 µM (inactive) in each case. The GI50 in [7], in test [8], in test [9], in test [10], in test [11] and in [12] was > 100 µM (inactive) throughout. The GI50 in [13], in [14], in test [15] and in test [16] was > 100 µM (inactive) each time.
For the compound `CCN(CC)CC(C(=O)Nc1c(C)cccc1C)/C(C)=N\NC(=O)c1ccncc1` (centres undefined), the GI50 in [2], in test [3], in [4], in test [6], in [8] and in test [9] was > 100 µM (inactive) each time. In addition, the GI50 in test [10], in test [11], in [12], in [13], in [14] and in test [15] was > 100 µM (inactive) each time. The GI50 in test [17] and in test [16] was > 100 µM (inactive) in each case.
On to `CCOC(=O)C1=C(C)N(NC(N)=O)C2(N)N(NC(N)=O)C(C)=C(C(=O)OCC)C12C#N` (centres undefined), for which the GI50 in test [2], in [3], in test [4], in test [5], in [6] and in [7] was > 100 µM (inactive) each time. Also, the GI50 in test [9], in test [10], in test [11], in test [12], in test [13] and in test [14] was > 100 µM (inactive) throughout. Further, the GI50 in test [15], in [17] and in test [16] was > 100 µM (inactive) in each case.
Regarding `COC(=O)N/N=C(\C(=O)Nc1cccc([N+](=O)[O-])c1)c1nc2ccc([N+](=O)[O-])cc2nc1O`, the GI50 was > 100 µM (inactive) in test [1]; > 100 µM (inactive) in test [2]; 39.5 µM (inactive) in test [4]; > 100 µM (inactive) in [5]; > 100 µM (inactive) in test [6]; 12.4 µM (inactive) in test [7]. For the same compound, the GI50 was > 100 µM (inactive) in test [8]; 14.5 µM (inactive) in [9]; 57.5 µM (inactive) in [10]; 45.3 µM (inactive) in [11]; 26.4 µM (inactive) in test [12]; 83.2 µM (inactive) in [13]. Besides, the GI50 in test [14] is > 100 µM (inactive); in test [15], 53.1 µM (inactive); in test [17], > 100 µM (inactive); in test [16], 24.7 µM (inactive).
`O=C(O)CNS(=O)(=O)c1ccc(NC(=O)CI)cc1`: the GI50 was 2.33 µM (inactive) in test [1]; 18 µM (inactive) in test [2]; > 100 µM (inactive) in test [3]; 16.1 µM (inactive) in [4]; 32.7 µM (inactive) in test [5]; 18.8 µM (inactive) in [6]. Further, the GI50 in [7] was 25.1 µM (inactive); in test [8] it was 18.3 µM (inactive); in test [9], 20 µM (inactive); in test [10], 25.7 µM (inactive); in test [11], 18.6 µM (inactive); in test [13], 21.1 µM (inactive). The GI50 in test [14] was > 100 µM (inactive); in test [15], 14.9 µM (inactive); in [16], 52 µM (inactive).
In the case of `O=[N+]([O-])c1cnn(C2=CNc3ccccc3N=C2)c1`, the GI50 in test [1], in test [4], in test [5], in [6], in test [7] and in test [8] was > 100 µM (inactive) each time. In addition, the GI50 in test [9], in [10], in test [12], in test [13], in [14] and in test [15] was > 100 µM (inactive) in each case. The GI50 in test [17] and in [16] was > 100 µM (inactive) in each case.
Consider `CC(C)(C)CC(C)(C)NCC(O)COc1ccc(C(C)(C)c2ccc(OCC(O)CNC(C)(C)CC(C)(C)C)cc2)cc1` (centres undefined), for which the GI50 is 0.356 µM (active) in test [1]; 2.01 µM (inactive) in [2]; 1.58 µM (inactive) in [3]; 1.86 µM (inactive) in test [4]; 1.72 µM (inactive) in test [5]; 1.59 µM (inactive) in [6]. The GI50 was 1.81 µM (inactive) in test [7]; 1.76 µM (inactive) in [8]; 1.61 µM (inactive) in test [9]; 0.46 µM (active) in test [10]; 0.279 µM (active) in test [11]; 1.77 µM (inactive) in [12]. Also, the GI50 is 1.64 µM (inactive) in test [13]; 1.97 µM (inactive) in test [14]; 1.06 µM (active) in test [15]; 0.366 µM (active) in test [17]; 1.77 µM (inactive) in [16].
For `COC(=O)C1=C(C[S+]([O-])c2ccc([N+](=O)[O-])cc2[N+](=O)[O-])C2C=CC1C2` (centres undefined), the GI50 was 11.8 µM (inactive) in [1]; 25.7 µM (inactive) in test [2]; > 100 µM (inactive) in test [3]; 24.3 µM (inactive) in [4]; 23.6 µM (inactive) in test [5]; 21.4 µM (inactive) in test [6]. For the same compound, the GI50 in [7] is 18 µM (inactive); in test [8] it was 26.4 µM (inactive); in test [9], 22.4 µM (inactive); in [10] it was 35.9 µM (inactive); in test [11], 42.6 µM (inactive); in [12], > 100 µM (inactive). For the same compound, the GI50 was 30.5 µM (inactive) in test [13], 31.4 µM (inactive) in test [14], 27.1 µM (inactive) in test [15] and 19.8 µM (inactive) in test [16].
For `CCOC(=O)/C(C)=C(/O)C(=O)OCC`, the GI50 in test [1], in [2], in [3], in test [4], in test [5] and in test [6] was > 100 µM (inactive) in each case. Also, the GI50 in test [7], in test [8], in [9], in test [10], in test [11] and in test [12] was > 100 µM (inactive) throughout. Further, the GI50 in [13], in test [14], in test [15] and in [16] was > 100 µM (inactive) throughout.
Turning to `COC1O[C@@H]2COC(C)(C)O[C@@H]2C(=O)N1Nc1ccc([N+](=O)[O-])cc1` (some centres undefined), the GI50 in test [1] is > 10 µM (inactive); in [2], > 100 µM (inactive); in [3], > 100 µM (inactive); in test [4] it was > 100 µM (inactive); in test [5] it was > 100 µM (inactive); in test [6], > 100 µM (inactive). The GI50 in test [7], in test [8], in [9], in test [10], in test [11] and in [12] was > 100 µM (inactive) in each case. Moreover, the GI50 was > 100 µM (inactive) in [13], > 100 µM (inactive) in test [14], 34.2 µM (inactive) in test [15] and > 100 µM (inactive) in [16].
